Tests used:
[1] = system: glucoamylase/maltase (GM complex); assay: Stability with respect to small intestine α-glucosidases: glucoamylase/maltase; conditions: 120 min incubation
Description: Solution 1: 0.1 mol/L triethanolamine (TEA) buffer, pH 7.0
Solution 6: 1% solution of maltose in solution 1
Solution 7: 1% solution of sucrose in solution 1
Solution 8: 1% solution of isomalt in solution 1
Solution 9: 1% solution of isomaltulose in solution 1
Solution 11: Glucoamylase/maltase enzyme complex in solution 1
i) 0.7 unit of the enzyme complex saccharase/isomaltase (solution 10) or glucoamylase/maltase (solution 11) was added in each case to 1.0 mL of a carbohydrate solution heated to 37° C. (solution 2 to solution 8), mixed and incubated at 37° C.
ii) For incubation under more severe conditions, 16 units of the enzyme complex saccharase/isomaltase or 13 units of the enzyme complex glucoamylase/maltase were used. The reaction was stopped after 2 h by heating to 95° C. for 15 min. The resulting monosaccharides and the undegraded saccharides of the relevant batches were quantitatively determined by HPAEC.

[2] = system: pancreatin enzyme (Sigma); assay: Stability with respect to pancreatic enzymes; type: in vitro ADME; conditions: 1% solution, 0.2% pancreatin, pH 7.0, 210 min at 37° C.
Description: The pancreatic secretion contains a large number of hydrolases, including carbohydrate-degrading enzymes like α-amylase, which breaks down α-1,4-glucans (starch, glycogen) preferably to maltose and maltooligosaccharides. The test of the stability of saccharides with respect to pancreatic enzymes is carried out as follows.
3.0 mL of a carbohydrate solution (solution 2 to solution 6) is mixed with 0.1 mL of the enzyme solution (solution 7) per batch:
Solution 1: 20 mmol/L Na phosphate buffer, pH 7.0, with 6 mmol/L NaCl
Solution 2: 1% solution of β-1,4-galactosyl isomalt mixture in accordance with the invention, prepared according to Example 2 and Example 4, in solution 1
Solution 3: 1% solution of β-1,3-galactosyl isomalt mixture in accordance with the invention, prepared according to Example 1 and Example 4, in solution 1
Solution 4: 1% solution of β-1,6-galactosyl isomalt mixture in accordance with the invention; prepared according to Example 3 and Example 4, in solution 1
Solution 6: 1% starch solution (soluble starch, according to Zulkowski), in solution 1
Solution 7: 0.2% pancreatin enzyme (Sigma), dissolved in solution 1
After 210 min incubation in a thermomixer (interval shaking) at 37° C., the reaction is stopped by heating to 95° C. for 15 min and the samples are analyzed by HPAEC. The starch-containing sample (solution6+solution 7) is completely hydrolyzed before the HPAEC analysis by heating for 3 h in 1 mol/L hydrochloric acid at 95° C., and the glucose resulting from this is determined in order to calculate the starch content of the sample.

[3] = system: lactase; assay: Stability with respect to lactase; type: in vitro ADME; conditions: 0.9 unit lactase, 1% solution, 37° C., 6 h
Description: The enzyme lactase that is present at the mucosa in the small intestine serves in vivo to break down lactose that gets into the small intestine and the resulting monosaccharides are absorbed into the bloodstream through the intestinal wall.
The enzyme lactase is isolated in a modified method of Wallenfels, K., and Fischer, J. (Z. Physiologische Chemie 321 (1960) 223).
Solutions 1-5: see Example 8c)
Solution 6: 1% solution of lactose in solution 1
Solution 7: 1% solution of isomalt in solution 1
Solution 8: Lactase in solution 1
(solutions 2-7), mixed and incubated at 37° C. The reaction is stopped after 6 h by heating to 95° C. for 15 min.

[4] = system: B. adolescentis DSM 20086; assay: Fermentation by human bifidobacteria; type: cell-based; parameters: key: −: no decomposition; +: decomposition and metabolization of galactose from β-1,3-galactosyl isomalt; ++: decomposition and metabolization of galactose and glucose from β-1,3-galactosyl isomalt; +++: complete decomposition of β-1,3-galcatosyl isomalt; conditions: medium 2, 48 h
Description: (§1) To investigate the prebiotic and bifidogenic properties of galactosyl isomalt, the growth of various human bifidobacteria was investigated on this substrate in vitro. An anaerobic medium of the following composition was used:
(§2) 22 strains of human bifidobacteria were first precultured in “Hungate” test tubes on the above medium 1, in which the source of carbohydrate had first been replaced by glucose (10 g/L). The strains were then inoculated onto medium 2, incubated for 48 h, and then the optical density (E578), the pH, the formation of acetate and lactate and the decrease of the β-1,3-galactosyl isomalt concentration were determined.
(§3) Various decomposition paths are distinguished with regard to the metabolization of galactosyl isomalt. Some strains degrade galactose from the substrate with a β-galactosidase and metabolize this monosaccharide (+).
(§4) Other strains additionally degrade glucose from the resulting isomalt, in addition to galactose, metabolize both monosaccharides, while this is not true for the resulting mannitol or sorbitol (++). The third group is capable of utilizing galactosyl isomalt as a substrate and also metabolizing mannitol and sorbitol (+++).

[5] = system: B. pseudocatenulatum DSM 20439; assay: Fermentation by human bifidobacteria; type: cell-based; parameters: key: −: no decomposition; +: decomposition and metabolization of galactose from β-1,3-galactosyl isomalt; ++: decomposition and metabolization of galactose and glucose from β-1,3-galactosyl isomalt; +++: complete decomposition of β-1,3-galcatosyl isomalt; conditions: medium 2, 48 h
Description: as §1, §2, §3, §4

[6] = system: B. catenulatum DSM 20224; assay: Fermentation by human bifidobacteria; type: cell-based; parameters: key: −: no decomposition; +: decomposition and metabolization of galactose from β-1,3-galactosyl isomalt; ++: decomposition and metabolization of galactose and glucose from β-1,3-galactosyl isomalt; +++: complete decomposition of β-1,3-galcatosyl isomalt; conditions: medium 2, 48 h
Description: as §1, §2, §3, §4

[7] = system: B. breve DSM 20091; assay: Fermentation by human bifidobacteria; type: cell-based; parameters: key: −: no decomposition; +: decomposition and metabolization of galactose from β-1,3-galactosyl isomalt; ++: decomposition and metabolization of galactose and glucose from β-1,3-galactosyl isomalt; +++: complete decomposition of β-1,3-galcatosyl isomalt; conditions: medium 2, 48 h
Description: as §1, §2, §3, §4

[8] = system: B. adolescentis DSM 20083; assay: Fermentation by human bifidobacteria; type: cell-based; parameters: key: −: no decomposition; +: decomposition and metabolization of galactose from β-1,3-galactosyl isomalt; ++: decomposition and metabolization of galactose and glucose from β-1,3-galactosyl isomalt; +++: complete decomposition of β-1,3-galcatosyl isomalt; conditions: medium 2, 48 h
Description: as §1, §2, §3, §4

[9] = Stability in the stomach: hydrolysis rate at pH 2.0; type: physicochemical; conditions: 1% solution, 10 mmol/L hydrochloric acid, pH 2.0, 37° C.
Description: The stability of a substance in the gastric passage can be simulated by determining the hydrolysis rate at pH 2.0. Sucrose and 1-kestose are used as controls.
In each case a 1% solution of the trisaccharides (DP 3) from Example 4 is incubated with 10 mmol/L hydrochloric acid, pH 2.0 at 37° C. for 3 h. Samples are taken from the reaction mixture after 60, 120 and 180 min and are analyzed by basic anion exchange chromatography, HPAEC.

OCC1O[C@H](OC[C@@H](O)[C@@H](O)[C@H](O)C(O)CO)C(O)C(O[C@@H]2OC(CO)[C@H](O)C(O)C2O)[C@@H]1O (mixture of isomers) [β-1,3-Galactosyl isomalt, β-D-galactosyl-(1→3)-α-D-glucosyl-(1→6)-D-sorbitol(β-1,3-galactosyl-1,6-GPS) and β-D-galactosyl-(1→3)-α-D-glucosyl-(1→1)-D-mannitol(β-1,3-galactosyl-1,1-GPM)]
Hydrolysis rate [%] ([1]; More stringent (13 units)): 0% | Hydrolysis rate [%] ([1]; Standard (0.7 unit), 37° C., pH 7.0): 0% | Decomposition rate [%] [2]: <1% | Hydrolysis rate [%], incubation with lactase [3]: 4.8% | Growth on β-1,3-galactosyl isomalt [4]: +++ | Growth on β-1,3-galactosyl isomalt [5]: ++ | Growth on β-1,3-galactosyl isomalt [6]: ++ | Growth on β-1,3-galactosyl isomalt [7]: + | Growth on β-1,3-galactosyl isomalt [8]: +++ | Hydrolysis rate [%] ([9]; incubation time 0 min): 0% | Hydrolysis rate [%] ([9]; incubation time 60 min): 0% | Hydrolysis rate [%] ([9]; incubation time 120 min): 0% | Hydrolysis rate [%] ([9]; incubation time 180 min): <1%
